Here are results for five compounds from US12162888B2, “Carboxamides as ubiquitin-specific protease inhibitors” (Valo Early Discovery, Inc., priority 2018, dated 2024).

The test system of experiment [1] is human eosinophil EOL-1 (DSMZ no. ACC 386) cells. Kind of experiment: In Vivo Xenograft Studies, Example A-2. To be noted: EOL-1 cells subcutaneous in flank of mice; first test compound 50-120 mg/kg orally or subcutaneously, second test compound 40 or 60 mg/kg orally twice per day; versus vehicle (FIG. 2). Here is the method:
Example A-2: In Vivo Xenograft Studies
Mice were injected subcutaneously in the flank with human eosinophil EOL-1 (DSMZ no. ACC 386) cells (NCI). Injections with cells (circles, FIG. 2A) and with vehicle alone (triangles, FIG. 2B) were monitored, and when tumors reached a critical size (for example, about 1000 mm^3), mice were randomized into treatment groups, including vehicle control and reference standard groups. The groups, as shown in FIG. 2B are as follows: Group 1, vehicle administered orally every other day; Group 2, first test compound ((S)-amino-N-(5-fluoro-7-(piperazin-1-yl)chroman-3-yl)-6-methylthieno[2,3-b]pyridine-2-carboxamide) at 120 mg/kg, administered orally every other day; Group 3, first test compound at 80 mg/kg, administered orally every other day; Group 4, first test compound at 80 mg/kg, administered subcutaneously twice per day, every other day thereafter; Group 5, first test compound at 60 mg/kg, administered subcutaneously twice per day for four consecutive days, with no administration for three days. […] The mice were weighed and tumors measured using vernier calipers on indicated days. Tumor volume was calculated according to the formula (length×width^2)/2.

Experiment [2] addresses T1, USP28 (His-tagged USP28-FL-mammalian) (Homo sapiens, UniProt Q96RU2).
T1 construct: Expression of USP28 (1-1077)-TEV-6*His (pTT5 vector) was carried out in Expi293f cells; made in house; host or cells: Expi293F cells (pTT5 vector)
T1 sequence (Q96RU2 1-1077): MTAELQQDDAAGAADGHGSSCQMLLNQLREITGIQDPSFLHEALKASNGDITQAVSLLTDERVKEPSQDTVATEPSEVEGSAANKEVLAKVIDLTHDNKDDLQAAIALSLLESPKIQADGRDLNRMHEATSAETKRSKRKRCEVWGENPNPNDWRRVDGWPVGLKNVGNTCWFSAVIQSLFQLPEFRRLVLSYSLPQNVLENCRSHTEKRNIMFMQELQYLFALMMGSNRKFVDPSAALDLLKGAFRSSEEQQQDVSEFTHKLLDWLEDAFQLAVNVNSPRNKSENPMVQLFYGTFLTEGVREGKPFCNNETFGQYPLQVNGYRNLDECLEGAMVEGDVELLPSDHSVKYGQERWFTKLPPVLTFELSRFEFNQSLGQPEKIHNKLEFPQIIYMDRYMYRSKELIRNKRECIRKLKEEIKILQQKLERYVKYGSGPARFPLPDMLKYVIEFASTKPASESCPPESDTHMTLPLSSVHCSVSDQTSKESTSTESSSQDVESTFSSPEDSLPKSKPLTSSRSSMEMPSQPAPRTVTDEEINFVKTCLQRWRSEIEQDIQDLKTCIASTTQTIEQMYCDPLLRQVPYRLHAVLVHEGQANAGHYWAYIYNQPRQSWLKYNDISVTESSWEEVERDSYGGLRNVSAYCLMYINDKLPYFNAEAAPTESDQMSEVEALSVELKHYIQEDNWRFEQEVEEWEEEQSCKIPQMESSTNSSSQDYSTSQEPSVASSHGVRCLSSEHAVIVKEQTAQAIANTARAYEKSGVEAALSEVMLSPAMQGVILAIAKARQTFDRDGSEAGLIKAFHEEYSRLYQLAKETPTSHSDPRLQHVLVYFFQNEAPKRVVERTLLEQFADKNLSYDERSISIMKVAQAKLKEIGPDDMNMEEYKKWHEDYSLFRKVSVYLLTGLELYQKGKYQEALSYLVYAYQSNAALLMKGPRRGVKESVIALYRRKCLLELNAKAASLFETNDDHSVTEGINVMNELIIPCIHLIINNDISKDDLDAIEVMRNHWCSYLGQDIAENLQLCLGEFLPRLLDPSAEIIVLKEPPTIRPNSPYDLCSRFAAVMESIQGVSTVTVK
The experiment is described as follows: Ubiquitin-Rhodamine 110 Assay for USP28 Activity, Example A-1(a). Particulars: Ubiquitin-Rhodamine 110 biochemical assay, read-out: USP28 A-1(a) IC50 range. Format: biochemical. Put shortly:
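Full-length His-tagged human USP28 (1-1077), expressed in Expi293F cells, was used at […] with 25 nM Ub-Rh110 (<<Km) in 20 mM Tris pH 8.0, 3 mM BME, 0.03% BGG and 0.01% Triton X-100. Compounds (25 μM-1.3 nM, 10-point) were preincubated with enzyme for 30 min, and the reaction ran 45 min at room temperature before a citric acid stop. Fluorescence was read at 485/535 nm, and IC50 came from 4-parameter fits of percent inhibition.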

A short description of experiment [3]: Ubiquitin-Rhodamine 110 Assay for USP25 Activity, Example A-3. To be noted: Ubiquitin-Rhodamine 110 biochemical assay, Example A-1(b); read-out: USP28 A-1(b) IC50 range. Format: biochemical. In a few lines: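 USP25-His6 ([…] final as stated) preincubated 30 min with compound (10-point, 25 μM to 1.3 nM), then Ub-Rh110 at 25 nM (<<Km) added in pH 8.0 Tris buffer with BME, BGG and Triton X-100. Reaction stopped after 45 min at room temperature with 10 mM citric acid; fluorescence read at 485/535 nm.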

In the case of `CO[C@H]1CN(c2ccc3c(n2)CC[C@H](NC(=O)c2sc4nc(C)cnc4c2N)C3)C[C@@H]1N` [second test compound, 7-amino-N-[(6S)-2-[(3S,4S)-3-amino-4-methoxypyrrolidin-1-yl]-5,6,7,8-tetrahydroquinolin-6-yl]-3-methylthieno[2,3-b]pyrazine-6-carboxamide], in experiment [1], the “tumor growth (tumor volume, (length×width^2)/2)” value was “slowing of tumor growth over time”.
For the compound `Cc1ccc2c(N)c(C(=O)N[C@@H]3COc4cc(N5CCNCC5)cc(F)c4C3)sc2n1` [first test compound, (S)-amino-N-(5-fluoro-7-(piperazin-1-yl)chroman-3-yl)-6-methylthieno[2,3-b]pyridine-2-carboxamide], in experiment [1], the “tumor growth (tumor volume, (length×width^2)/2)” value is given as “slowing of tumor growth over time”.
Usually IC50 stands for the concentration needed to halve the response being measured. On to `Cc1ccc2c(N)c(C(=O)N[C@H]3CCc4nc(N5CC[C@@H](N)[C@@H]5C(F)F)ccc4C3)sc2n1` [Example 478, 3-amino-N-[(6S)-2-[(2R,3R)-3-amino-2-(difluoromethyl)pyrrolidin-1-yl]-5,6,7,8-tetrahydroquinolin-6-yl]-6-methylthieno[2,3-b]pyridine-2-carboxamide], for which the IC50 in experiment [2] is 50 to 200 nM; in experiment [3], more than 2000 nM.
Regarding `Cc1ccc2c(N)c(C(=O)N[C@H]3CCc4nc(N5CC[C@H](N)[C@H]5C(F)F)ccc4C3)sc2n1` [Example 479, 3-amino-N-[(6S)-2-[(2S,3S)-3-amino-2-(difluoromethyl)pyrrolidin-1-yl]-5,6,7,8-tetrahydroquinolin-6-yl]-6-methylthieno[2,3-b]pyridine-2-carboxamide], the IC50 was 1 to 50 nM in experiment [2] and 50 to 200 nM in experiment [3].
The corresponding values for `CCN[C@@H]1CN(c2ccc3c(n2)CC[C@H](NC(=O)c2sc4nc(C)ccc4c2N)C3)C[C@H]1COC` [Example 477, 3-amino-N-[(6S)-2-[(3S,4R)-3-(ethylamino)-4-(methoxymethyl)pyrrolidin-1-yl]-5,6,7,8-tetrahydroquinolin-6-yl]-6-methylthieno[2,3-b]pyridine-2-carboxamide] are 50 to 200 nM and more than 2000 nM.
